Broadly, the IC50 is the concentration needed to halve the response being measured.

In one experiment the target is GPR84 (Homo sapiens, UniProt Q9NQS5). The experiment is described as follows: GPR84 antagonistic activity, calcium flux (Fluo-4) assay with agonist 6-OAU. The class given is cell-based. More on the design: expressed in transfected cells; host or cells: HEK293.
Sequence of GPR84 (Q9NQS5 whole entry): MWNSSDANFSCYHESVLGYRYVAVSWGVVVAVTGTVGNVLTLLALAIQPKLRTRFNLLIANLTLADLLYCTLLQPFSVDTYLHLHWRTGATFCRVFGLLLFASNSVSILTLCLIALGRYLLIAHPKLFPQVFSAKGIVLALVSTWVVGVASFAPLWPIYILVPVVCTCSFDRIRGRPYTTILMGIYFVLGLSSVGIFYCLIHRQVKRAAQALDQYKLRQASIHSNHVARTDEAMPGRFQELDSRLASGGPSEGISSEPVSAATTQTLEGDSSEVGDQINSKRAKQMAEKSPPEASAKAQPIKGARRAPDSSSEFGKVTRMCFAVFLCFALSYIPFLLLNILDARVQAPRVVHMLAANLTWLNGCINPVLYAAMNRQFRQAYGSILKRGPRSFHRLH
Conditions: not given
As to the method:
The human GPR84 cell line was obtained by transfecting a HEK293 cell line with a plasmid encoding GPR84 and Gα16 proteins. Fluorescent dye Fluo-4AM was purchased from Invitrogen.
Intracellular Ca^2+ ion is a very important second messenger of G protein-coupled receptor signaling pathway. […] Fluo-4 is a Ca^2+ ion-specific fluorescent probe that binds quantitatively to Ca^2+ ions and emits fluorescence.
Detection of receptor inhibitory effect by GPR84 antagonist: After incubated with fluorescent dye Fluo-4, GPR84 cells were incubated with different concentrations of antagonistic compounds for a period of time to occupy the binding site of agonist to GPR84 (antagonistic binding site). A certain concentration of agonist (6-n-octylaminouracil, 6-OAU) was added to compete with the antagonist compound for binding sites. […] The half-inhibitory concentration (IC50) of the compound was calculated by using GraphPad PRISM software.
The above ingredients were weighed and dissolved in ultrapure water. pH was adjusted to 7.4 by using hydrochloric acid or NaOH solution. The mixture was filtered and stored at 4° C. for one month.
The buffer was prepared on site.
The cells were seeded in a 96-well plate at a density of 4×10^4 cells/well. After 24 hours of culture, the culture medium was removed, and 40 μL of Fluo-4AM fluorescent staining solution was added to each well and incubated in a 37° C. incubator for 40 minutes. After the dye was aspirated and discarded, 50 μL of the tested compound was added and incubated at room temperature for 10 minutes.
Background: A change in cytosolic calcium serves as a functional read-out for many receptors and channels.
For `COc1cccc2c1Sc1ccccc1C=C2OP(=O)(O)OC1CCOC1` (stereo not shown) [LSX406], the IC50 was 1000 to 10000 nM. As for `COc1cccc2c1Sc1ccccc1C=C2OP(=O)(O)Oc1ccc(F)cc1` [LSX430], the IC50 was in the range of 1000 to 10000 nM. Regarding `CCCCCCCCP(=O)(O)OC1=Cc2ccccc2Sc2c(OC)cccc21` [LSX432], the IC50 fell in the range of 100 to 1000 nM. The same measure, in the same setting: then `COc1ccc(OP(=O)(O)OC2=Cc3ccccc3Sc3c(OC)cccc32)cc1` [LSX442], with 100 to 1000 nM. On the same count and under the same terms, then `COc1cccc2c1Sc1ccccc1C=C2OP(=O)(O)Oc1ccccc1C(C)C` [LSX454], with 1000 to 10000 nM.

As to `COc1cccc2c1Sc1ccccc1C=C2OP(=O)(O)Oc1ccc([N+](=O)[O-])cc1` [LSX457], the IC50 is 1000 to 10000 nM. Still for that read-out and setting: then `COc1cccc2c1Sc1ccccc1C=C2OP(=O)(O)Oc1cccc2ccccc12` [LSX462a], with 100 to 1000 nM; and `COc1cccc2c1Sc1ccccc1C=C2OP(=O)(O)Oc1ccc2ccccc2c1` [LSX462b], with 100 to 1000 nM; and `COc1cccc2c1Sc1ccccc1C=C2OP(=O)(O)Oc1cc(C)ccc1C(C)C` [LSX468a], with 100 to 1000 nM. On the same count and under the same terms, next, `COc1cccc2c1Sc1ccccc1C=C2OP(=O)(O)Oc1cc(C(C)C)ccc1C` [LSX468b]: 100 to 1000 nM. Turning to `COc1cccc2c1Sc1ccccc1C=C2OP(=O)(O)Oc1cc(Cl)ccc1Cl` [LSX480], the IC50 was 100 to 1000 nM. Take `CCCCCc1ccccc1OP(=O)(O)OC1=Cc2ccccc2Sc2c(OC)cccc21` [LSX482a]: the IC50 lay in the range of 100 to 1000 nM. On to `CCCCCc1cccc(OP(=O)(O)OC2=Cc3ccccc3Sc3c(OC)cccc32)c1` [LSX482b], for which the IC50 was under 100 nM. Same read-out and setting: next, `CCCCCc1ccc(OP(=O)(O)OC2=Cc3ccccc3Sc3c(OC)cccc32)cc1` [LSX482c]: 100 to 1000 nM; `COc1cccc2c1Sc1ccccc1C=C2OP(=O)(O)Oc1ccc(Br)cc1` [LSX491a]: 100 to 1000 nM; `COc1cccc2c1Sc1ccccc1C=C2OP(=O)(O)Oc1c(C(C)C)cccc1C(C)C` [LSX496]: 1000 to 10000 nM.

On to `COc1cccc2c1Sc1ccccc1C=C2OP(=O)(O)Oc1ccc(Oc2ccccc2)cc1` [LSX504], for which the IC50 was in the range of 1000 to 10000 nM. As for `CCCCCc1cc(CCCCC)cc(OP(=O)(O)OC2=Cc3ccccc3Sc3c(OC)cccc32)c1` [LSX552], the IC50 was 100 to 1000 nM.

The same experiment, now with this note: HEK293 cells with GPR84 and Gα16; Fluo-4 calcium signal; agonist 6-OAU around EC80.
For `CC1(C)[C@@H]2CC[C@@]1(C)[C@H](OP(=O)(O)OC1=Cc3c(Cl)cccc3Sc3ccccc31)C2` [LSX476g], the IC50 was under 100 nM.

Staying with this experiment, now noted: HEK293 cells with GPR84 and Gα16; Fluo-4 calcium signal; agonist 6-OAU around EC80; read-out: IC50.
For `COc1cccc2c1Sc1ccccc1C=C2OP(=O)(O)N1CCC(C)(C)CC1` [LSX431], the concentration for half-maximal inhibition (IC50) lay in the range of 1000 to 10000 nM.

Still in this experiment, the particulars now being: IC50, HEK293 cells with GPR84 and Gα16; Fluo-4 calcium signal; agonist 6-OAU around EC80.
Take `CC1(C)[C@@H]2CC[C@@]1(C)[C@H](OP(=O)(O)OC1=Cc3c(Cl)cccc3Sc3ccccc31)C2` (racemic) [LSX476b]: the IC50 is under 100 nM. Still for that read-out and setting: then `CC1(C)[C@H]2CC[C@]1(C)[C@H](OP(=O)(O)OC1=Cc3c(Cl)cccc3Sc3ccccc31)C2` (racemic) [LSX476d], with 100 to 1000 nM; and `COc1cccc2c1Sc1ccccc1C=C2OP(=O)(O)OC` [LSX350], with 1000 to 10000 nM. On the same count and under the same terms, next, `CCCCCCOP(=O)(O)OC1=Cc2ccccc2Sc2c(OC)cccc21` [LSX420-3]: 100 to 1000 nM; `CC1(C)[C@@H]2CC[C@@](C)(C2)[C@@H]1OP(=O)(O)OC1=Cc2ccccc2Oc2ccccc21` [LSX426j]: 1000 to 10000 nM. In the case of `COc1cccc2c1Sc1ccccc1C=C2OP(=O)(O)OC1CCCCC1C` (stereo not shown) [LSX432-2a], the half-maximal inhibitory concentration (IC50) fell in the range of 1000 to 10000 nM.

On to `COc1cccc2c1Sc1ccccc1C=C2OP(=O)(O)OC1CCC(C)CC1` (stereo not shown) [LSX432-2c], for which the IC50 lay in the range of 1000 to 10000 nM. For `COc1cccc2c1Sc1ccccc1C=C2OP(=O)(O)OCCc1ccccc1` [LSX440], the IC50 was in the range of 1000 to 10000 nM.

For the molecule `CC1(C)[C@H]2CC[C@]1(C)[C@H](OP(=O)(O)OC1=Cc3ccccc3Sc3ccccc31)C2` [LSX442a], the IC50 lay within 100 to 1000 nM. Same read-out and setting: then `CC1(C)[C@@H]2CC[C@@](C)(C2)[C@@H]1OP(=O)(O)OC1=Cc2ccccc2Sc2ccccc21` [LSX442j], with 1000 to 10000 nM. Same read-out and setting: then `COc1cccc2c1Sc1ccccc1C=C2OP(=O)(O)OCC1CC2CCC1C2` (stereo not shown) [LSX444-2], with 100 to 1000 nM; and `COc1cccc2c1Sc1ccccc1C=C2OP(=O)(O)OC1C(C)CCCC1C` (stereo not shown) [LSX446-2], with 1000 to 10000 nM; and `CC/C=C\CCCCOP(=O)(O)OC1=Cc2ccccc2Sc2c(OC)cccc21` [LSX446], with 100 to 1000 nM. As for `CCCCCCCCOP(=O)(O)OC1=Cc2c(Cl)cccc2Sc2ccccc21` [LSX452], the IC50 is 100 to 1000 nM. On the same count and under the same terms, then `COc1cccc2c1Oc1ccccc1C=C2OP(=O)(O)O[C@@H]1C(C)(C)[C@@H]2CC[C@@]1(C)C2` [LSX456j], with 1000 to 10000 nM. The same measure, in the same setting: next, `CC1(C)[C@H]2CC[C@]1(C)[C@H](OP(=O)(O)OC1=Cc3c(F)cccc3Sc3ccccc31)C2` [LSX460a]: 100 to 1000 nM; `CC1(C)[C@@H]2CC[C@@](C)(C2)[C@@H]1OP(=O)(O)OC1=Cc2c(F)cccc2Sc2ccccc21` [LSX460j]: 100 to 1000 nM. Same read-out and setting: then `CCCCCCCCCOP(=O)(O)OC1=Cc2ccccc2Sc2c(OC)cccc21` [LSX462-3], with 100 to 1000 nM. In the case of `COc1cccc2c1Sc1ccccc1C=C2OP(=O)(O)OCCCCCCCCF` [LSX466], the IC50 was in the range of 1000 to 10000 nM. Same read-out and setting: then `COc1cccc2c1Sc1ccccc1C=C2OP(=O)(O)OC12CC3CC(CC(C3)C1)C2` [LSX470a], with 100 to 1000 nM; and `COc1cccc2c1Sc1ccccc1C=C2OP(=O)(O)OC1C2CC3CC(C2)CC1C3` (stereo not shown) [LSX470b], with 100 to 1000 nM. On to `COc1cccc2c1Sc1ccccc1C=C2OP(=O)(O)OC1CCC(C(C)(C)C)CC1` (stereo not shown) [LSX474-2], for which the IC50 was in the range of 100 to 1000 nM. The same measure, in the same setting: then `COc1cccc2c1Sc1ccccc1C=C2OP(=O)(O)OC1C(C)(C)CCCC1(C)C` [LSX474-3], with 100 to 1000 nM; and `COc1cccc2c1Sc1ccccc1C=C2OP(=O)(O)O[C@@H]1C[C@H](C)CC[C@H]1C(C)C` [LSX474a], with under 100 nM. Still for that read-out and setting: next, `COc1cccc2c1Sc1ccccc1C=C2OP(=O)(O)O[C@H]1C[C@@H](C)CC[C@@H]1C(C)C` [LSX474b]: under 100 nM; `CC1(C)[C@H]2CC[C@]1(C)[C@H](OP(=O)(O)OC1=Cc3c(Cl)cccc3Sc3ccccc31)C2` [LSX476a]: under 100 nM.

On to `CC1(C)[C@@H]2CC[C@@]1(C)[C@@H](OP(=O)(O)OC1=Cc3c(Cl)cccc3Sc3ccccc31)C2` [LSX476c], for which the IC50 lay in the range of 100 to 1000 nM.

As to `CC1(C)[C@H]2CC[C@]1(C)[C@@H](OP(=O)(O)OC1=Cc3c(Cl)cccc3Sc3ccccc31)C2` [LSX476h], the IC50 was 100 to 1000 nM. `COC(=O)CCCCCCCOP(=O)(O)OC1=Cc2ccccc2Sc2c(OC)cccc21` [LSX492]: the IC50 was 1000 to 10000 nM. On to `COc1cccc2c1Sc1ccccc1C=C2OP(=O)(O)OC12CC3CC(C)(CC(C)(C3)C1)C2` [LSX498], for which the IC50 was 100 to 1000 nM. For `CC1(C)[C@H]2CC[C@]1(C)[C@H](OP(=O)(O)OC1=Cc3ccccc3Sc3c(OC(F)(F)F)cccc31)C2` [LSX526a], the IC50 lay within 100 to 1000 nM.

Consider `CC1(C)[C@@H]2CC[C@@](C)(C2)[C@@H]1OP(=O)(O)OC1=Cc2ccccc2Sc2c(OC(F)(F)F)cccc21` [LSX526j], for which the IC50 was under 100 nM.

Consider `COc1cccc2c1Sc1ccccc1C=C2OP(=O)(O)OCCCCCCCCBr` [LSX527], for which the IC50 lay within 100 to 1000 nM. The same measure, in the same setting: next, `CC1CC(C(C)(C)C)C(OP(=O)(O)OC2=Cc3c(Cl)cccc3Sc3ccccc32)C(C(C)(C)C)C1` (stereo not shown) [LSX548]: 1000 to 10000 nM; `COc1cccc2c1Sc1ccccc1C=C2OP(=O)(O)OC12CC3CC(C1)C(Nc1ncnc4[nH]ccc14)C(C3)C2` (stereo not shown) [LSX602]: under 100 nM; `COc1cccc2c1Sc1ccccc1C=C2OP(=O)(O)OC12CC3CC(C1)C(Nc1c(C(N)=O)cnc4[nH]ccc14)C(C3)C2` (stereo not shown) [LSX644]: 1000 to 10000 nM. Same read-out and setting: next, `COc1cccc2c1Sc1ccccc1C=C2OP(=O)(O)O[C@@H]1CC[C@@]2(C)C(CC[C@H]3[C@@H]4CC[C@H]([C@H](C)CCC(=O)O)[C@@]4(C)CC[C@@H]32)C1` (stereo partly shown) [LSX694]: 100 to 1000 nM. Same read-out and setting: next, `COc1cccc2c1Sc1ccccc1C=C2OP(=O)(O)O[C@@H]1CC[C@@]2(C)C(C1)C[C@@H](O)[C@H]1[C@@H]3CC[C@H]([C@H](C)CCC(=O)O)[C@@]3(C)CC[C@@H]12` (stereo partly shown) [LSX710]: 100 to 1000 nM; `COc1cccc2c1Sc1ccccc1C=C2OP(=O)(O)O[C@@H]1CC[C@@]2(C)[C@@H](C1)C[C@@H](O)[C@@H]1[C@@H]2C[C@H](O)[C@]2(C)[C@@H]([C@H](C)CCC(=O)O)CC[C@@H]12` [LSX726]: 1000 to 10000 nM. For the molecule `COc1cccc2c1Sc1ccccc1C=C2OP(=O)(O)OCCCNC(=O)CC[C@@H](C)[C@H]1CC[C@H]2[C@@H]3[C@H](O)C[C@@H]4C[C@H](O)CC[C@]4(C)[C@H]3C[C@H](O)[C@]12C` [LSX784], the IC50 was in the range of 1000 to 10000 nM.

The same experiment, now with this note: read-out: IC50.
As to `COc1cccc2c1Sc1ccccc1C=C2OP(=O)(O)OC1COC(C)(C)C1` (stereo not shown) [LSX434-2], the IC50 lay in the range of 1000 to 10000 nM.

Values taken from US20240342201A1, “ASYMMETRIC GPR84 ANTAGONIST AND USE THEREOF” (priority 2021, published 2024).
